Laboratory results published in ChEMBL document CHEMBL5154702, “Synthesis and biological evaluation of aminobenzamides containing purine moiety as class I histone deacetylases inhibitors” (Bioorg Med Chem, 2022).
Active and inactive are the calls of the source. The rule behind the calls is not given here.

Legend:
HCT-116 [1] = assay: Cell cycle arrest in human HCT-116 cells assessed as accumulation of cells at G2/M phase at 0.1 uM measured after 24 hrs by propidium iodide staining based flow cytometry (reference value: 22.74%); assay type: functional
HCT-116 [2] = assay: Induction of cell morphological changes in human HCT-116 cells assessed as cell shrinkage at 0.5 to 5 uM measured after 24 hrs by phase contrast microscopy; assay type: functional, cell-based; conditions: dose 0.5-5 µM
HCT-116 [3] = assay: Induction of apoptosis in human HCT-116 cells assessed as early apoptotic cells at 0.5 uM measured after 24 hrs by Annexin V-FITC/propidium iodide staining based flow cytometry (reference value: 1.87%); assay type: functional
HCT-116 [4] = assay: Cell cycle arrest in human HCT-116 cells assessed as accumulation of cells at G0/G1 phase at 10 uM measured after 12 hrs by propidium iodide staining based flow cytometry (reference value: 58.05%); assay type: functional
HCT-116 [5] = assay: Induction of apoptosis in human HCT-116 cells assessed as late apoptotic cells at 0.5 uM measured after 24 hrs by Annexin V-FITC/propidium iodide staining based flow cytometry (reference value: 3.43%); assay type: functional
[6] = Intrinsic clearance in human liver microsomes assessed per mg protein at 13.8 uM by HPLC analysis; assay type: ADME, Microsome
HCT-116 [7] = assay: Induction of cell morphological changes in human HCT-116 cells assessed as […] deformation at 0.5 to 5 uM measured after 24 hrs by phase contrast microscopy; assay type: functional, cell-based; conditions: dose 0.5-5 µM
HCT-116 [8] = assay: Cell cycle arrest in human HCT-116 cells assessed as up regulation of p21 expression at 5 uM by Western blot analysis; assay type: functional, cell-based; conditions: time 6-48 hrs, TDE = time-dependent effect
HCT-116 [9] = assay: Cell cycle arrest in human HCT-116 cells assessed as accumulation of cells at G2/M phase at 5 uM measured after 24 hrs by propidium iodide staining based flow cytometry (reference value: 22.74%); assay type: functional
[10] = Half life in dog liver microsomes at 13.8 uM by HPLC analysis; assay type: ADME, Canis lupus familiaris, Microsome
HCT-116 [11] = assay: Cell cycle arrest in human HCT-116 cells assessed as accumulation of cells at G2/M phase at 10 uM measured after 24 hrs by propidium iodide staining based flow cytometry (reference value: 22.74%); assay type: functional
HCT-116 [12] = assay: Cell cycle arrest in human HCT-116 cells assessed as down regulation of CDK2 expression at 5 uM by Western blot analysis; assay type: functional, cell-based; conditions: time 6-48 hrs, TDE = time-dependent effect
HCT-116 [13] = assay: Cell cycle arrest in human HCT-116 cells assessed as accumulation of cells at G2/M phase at 10 uM measured after 6 hrs by propidium iodide staining based flow cytometry (reference value: 22.74%); assay type: functional
HCT-116 [14] = assay: Antiproliferative activity against human HCT-116 cells measured after 48 hrs by MTT assay; assay type: functional, cell-based; conditions: HCT-116, 48 h
HCT-116 [15] = assay: Induction of apoptosis in human HCT-116 cells assessed as late apoptotic cells at 5 uM measured after 24 hrs by Annexin V-FITC/propidium iodide staining based flow cytometry (reference value: 3.43%); assay type: functional
A549 = assay: cells; assay type: functional, cell-based; conditions: Homo sapiens, A549, 48 h

Compound: CCCCNc1nc(Cl)nc2c1ncn2Cc1ccc(C(=O)Nc2ccccc2N)cc1
- Activity (HCT-116 [1]): 23.95%
- Activity (HCT-116 [2]): Active
- Activity (HCT-116 [3]): 33.1%
- Activity (HCT-116 [4]): 71.11%
- Activity (HCT-116 [5]): 2.12%
- CLint [6]: 2.5 µL/min/mg
- Activity (HCT-116 [7]): Active
- Activity (HCT-116 [8]): Tde
- Activity (HCT-116 [9]): 14.39%
- half-life at 13.8 µM [10]: 3.73 h
- Activity (HCT-116 [11]): 11.15%
- Activity (HCT-116 [12]): Tde
- Activity (HCT-116 [13]): 20.04%
- IC50 (HCT-116 [14]): 500 nM
- Activity (HCT-116 [15]): 10.1%
- IC50 (A549): 1650 nM
